Drawing on PubChem BioAssay (NCI), this text covers GI50 and TGI for 13 molecules.

The structures appear in SMILES notation. Where “and” joins values, the source holds several entries; their conditions need not be identical. Identical values can stand only once.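 96-well plates; 48 h exposure; 5 concentrations. Endpoints by linear interpolation between flanking doses. Not reached: highest tested concentration assigned. GI50: concentration for 50% inhibition of growth. TGI: concentration producing complete growth inhibition.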

Test systems include HS 578T breast; MCF7 breast; T-47D breast; MDA-MB-435; PC-3 prostate.
Common to all, as to test: DTP human tumour cell line panel, 48 h

For the molecule `CCCCN(Cc1ccc(F)cc1)c1ccc(CO)c(Cl)c1`, the GI50 with HS 578T breast is 17.7 µM; with MCF7 breast, 2.3 µM; in the experiment with T-47D breast, 1.27 µM; in the experiment on MDA-MB-435 it was 17.6 µM; in the experiment with PC-3 prostate, 13.8 µM. Besides, the TGI in the experiment with HS 578T breast is 40.9 µM; with MCF7 breast it was 15 µM; with T-47D breast it was 10.2 µM; with MDA-MB-435 it was 35.1 µM; in the experiment on PC-3 prostate it was 28.4 µM.
Regarding `COc1cc(-c2cn(-c3ccc(Cl)cc3)c(C)c2C(=O)C(F)(F)F)cc(OC)c1OC`, the GI50 in the experiment with HS 578T breast is above 100 µM; in the experiment with MCF7 breast, 24.6 µM; in the experiment on T-47D breast it was 6.95 µM; in the experiment on MDA-MB-435, above 100 µM; with PC-3 prostate, 13.6 µM. Moreover, the TGI in the experiment on HS 578T breast, with MCF7 breast, in the experiment with T-47D breast, in the experiment with MDA-MB-435 and with PC-3 prostate was above 100 µM in each case.
For the molecule `CO/N=C(\C)c1ccc(Nc2cc(-c3ccccc3)nc3c(O)cccc23)cc1`, the GI50 with HS 578T breast was 18.2 µM; in the experiment with T-47D breast it was 9.07 µM; with MDA-MB-435, 15.5 µM; in the experiment with PC-3 prostate it was 13.7 µM. Moreover, the TGI was determined as 46.1 µM with HS 578T breast, 27.8 µM with T-47D breast, 30.9 µM in the experiment on MDA-MB-435 and 35 µM in the experiment with PC-3 prostate.
Take `CC12CCC(=O)C=C1CCC1C2C(O)CC2(C)C(c3csc(N)n3)CCC12` (stereo not drawn): the TGI with HS 578T breast, with MCF7 breast, in the experiment with T-47D breast, in the experiment with MDA-MB-435 and with PC-3 prostate was above 100 µM in each case.
For `CN(CCOc1ccc(C#N)cc1)CCOc1ccc(C#N)cc1`, the GI50 in the experiment on HS 578T breast is 13.8 µM; with MCF7 breast, above 100 µM; in the experiment on T-47D breast, above 100 µM; in the experiment with MDA-MB-435 it was 78.8 µM; in the experiment on PC-3 prostate, 41.6 µM. The TGI in the experiment on HS 578T breast, with MCF7 breast, in the experiment with T-47D breast, with MDA-MB-435 and in the experiment on PC-3 prostate was above 100 µM throughout.
`Fc1ccc2[nH]c3c(NCCCN4CCOCC4)ncnc3c2c1`: the GI50 in the experiment on HS 578T breast is 41.9 µM; in the experiment on MCF7 breast it was 41.5 µM; with T-47D breast, 35.7 µM; with MDA-MB-435, 51 µM; in the experiment on PC-3 prostate, 65.7 µM. The total growth inhibition concentration (TGI) in the experiment on HS 578T breast, with MCF7 breast, in the experiment on T-47D breast, in the experiment on MDA-MB-435 and with PC-3 prostate was above 100 µM in each case.
As to `Clc1nc(Cl)c2ncn(Cc3ccc(COc4cccc(OCc5ccc(Cn6cnc7c(Cl)nc(Cl)nc76)cc5)c4)cc3)c2n1`, the GI50 was 54.1 µM with HS 578T breast; 28.9 µM in the experiment on MCF7 breast; 21.5 µM in the experiment on T-47D breast; 26.7 µM in the experiment on MDA-MB-435; 24.1 µM with PC-3 prostate. Moreover, the TGI with HS 578T breast, in the experiment with MCF7 breast, in the experiment on T-47D breast, in the experiment with MDA-MB-435 and in the experiment with PC-3 prostate was above 100 µM in each case.
As to `Cc1cc(C(C#N)c2ccc(Cl)cc2)c(Cl)cc1NC(=O)c1cc(I)cc(I)c1O` (stereo not drawn), the GI50 was 12 µM in the experiment on HS 578T breast; 6.58 µM and 15.7 µM with MCF7 breast; 19.1 µM and 15.2 µM in the experiment on T-47D breast; 12 µM and 18.8 µM in the experiment with MDA-MB-435; 3.18 µM and 11.7 µM in the experiment on PC-3 prostate. For the same molecule, the TGI in the experiment on HS 578T breast was 34.4 µM; in the experiment on MCF7 breast, 23.8 µM and 32.4 µM; with T-47D breast, 46.9 µM and 37 µM; in the experiment on MDA-MB-435 it was 31.6 µM and 42 µM; in the experiment with PC-3 prostate, 23 µM and 32.5 µM.
As to `O=C(CCl)N1c2ccccc2Sc2c1ccc1ccccc21`, the GI50 was 4.17 µM with HS 578T breast; 2.52 µM in the experiment on MCF7 breast; 2.19 µM in the experiment with T-47D breast; 2.41 µM in the experiment with MDA-MB-435; 1.74 µM in the experiment on PC-3 prostate. Moreover, the total growth inhibition concentration (TGI) with HS 578T breast was determined as 43.9 µM; in the experiment on MCF7 breast, 6.47 µM; in the experiment with T-47D breast it was 6.07 µM; with MDA-MB-435, 7.06 µM; with PC-3 prostate, 4.45 µM.
Consider `C[C@@H]1COCCN1c1cc(C2(S(C)(=N)=O)CC2)nc(-c2ccnc3[nH]ccc23)n1` (stereo partly drawn), for which the GI50 in the experiment on HS 578T breast was 2.77 µM; in the experiment with MCF7 breast, 0.528 µM; in the experiment on T-47D breast, 3.15 µM; with MDA-MB-435, 3.74 µM; with PC-3 prostate it was 12.8 µM. The total growth inhibition concentration (TGI) is 22.1 µM in the experiment on HS 578T breast; 70.2 µM in the experiment with MCF7 breast; 19.5 µM in the experiment on T-47D breast; 21.8 µM in the experiment with MDA-MB-435; 74.2 µM with PC-3 prostate.
As for `C[C@@H]1CN(CC(=O)N2CC(C)(C)c3nc(CO)c(Cc4ccc(F)cc4)cc32)[C@@H](CN2CCOC[C@H]2C)CN1`, the GI50 is 25 µM in the experiment with HS 578T breast; 37 µM in the experiment on MCF7 breast; 17.2 µM in the experiment on T-47D breast; 37.1 µM in the experiment with MDA-MB-435; 58.5 µM with PC-3 prostate. The TGI in the experiment with HS 578T breast is above 100 µM; in the experiment with MCF7 breast it was above 100 µM; with T-47D breast, 47.8 µM; in the experiment with MDA-MB-435, above 100 µM; in the experiment with PC-3 prostate, above 100 µM.
Consider `O=C1C(Cl)=C(Nc2cccc(O)c2)C(=O)N1c1cc(Cl)c(Cl)cc1Cl`, for which the GI50 in the experiment with HS 578T breast is 17.6 µM; in the experiment with MCF7 breast, 20.3 µM; with T-47D breast, 42.1 µM; with MDA-MB-435 it was 22.7 µM; in the experiment with PC-3 prostate, 15.2 µM. Besides, the TGI in the experiment with HS 578T breast was 39.4 µM; with MCF7 breast it was 54.7 µM; in the experiment on T-47D breast, above 100 µM; with MDA-MB-435, 55.9 µM; in the experiment with PC-3 prostate it was 31.6 µM.
On to `Nc1cc(N)c(N)cc1N`, for which the GI50 is 2.01 µM in the experiment with HS 578T breast; 1.79 µM in the experiment on MCF7 breast; 4.57 µM in the experiment with T-47D breast; 0.296 µM in the experiment on MDA-MB-435; 3.1 µM with PC-3 prostate. The concentration for total growth inhibition (TGI) in the experiment on HS 578T breast was 5.37 µM; in the experiment on MCF7 breast it was 3.81 µM; with T-47D breast, 24.5 µM; in the experiment with MDA-MB-435, 0.851 µM; in the experiment on PC-3 prostate, above 100 µM.

The GI50 is the concentration that inhibits growth by half. Broadly, the TGI is the concentration at which net growth stops. Higher therefore signals less potent growth arrest.
